For one experiment, the system named is DU145 cells. Put plainly: Cell proliferation assay (MTT), DU145 prostate cancer cells. The class given is cell-based, human. The procedure:
(§1) For cell proliferation assays, cells were grown in 10% FCS culture medium containing various amounts of IFNs and/or sodium stibogluconate in 96 well plates and cultured at 37° C. for 3 or 6 days as indicated. The numbers of viable cells in proliferation assays were determined by MTT assays as described in Phatak et al., J. Immunol. 167, 3391 (2001).
(§2) NIH3T3 (Yi, et al., Blood 85, 87 (1995)), WM9 (Forsberg, et al., Proc. Nat. Acad Sci. USA 90, 393 (1993)), DU145 (Mickey, et al., Cancer Res. 37, 4049 (1977)), LoVo (Drewinko, et al., Cancer Res. 36, 467 (1976)), HEY (Buick, et al., Cancer Res. 45, 3668 (1985)), U251 (Yoshida, et al., Cancer 50, 410 (1982)), A549 (Giard, et al., J. Natl. Cancer Inst. 51, 1417 (1973)) and SK-N-SH (Helson, et al., Cancer Res. 35, 2594 (1975)) cell lines have been described and were cultured in RPMI 1640 supplemented with 10% fetal calf serum (FCS). For measurement of sodium stibogluconate effects on cell growth in vitro, cells were cultured in the absence (−) or presence (+) of various amounts of sodium stibogluconate for 6 days with viable cells quantified by MTT assays (Mosmann, J. Imunol. Methods 65, 55 (1983)). Percentages of growth inhibition by sodium stibogluconate were calculated (+/−×%).

In a further experiment the test system is C42 cells. The experiment is described as follows: Cell proliferation assay (MTT), C42 prostate cancer cells. The class given is cell-based, human. On the procedure:
as §1

A further experiment relates to LoVo cells. The experiment is described as follows: Cell growth assay (MTT), LoVo colon cancer cells. In kind it is cell-based, human. The note with it: 100 μg/ml, day 6. The procedure: as §2
The target in a further experiment is T1, PRL-3 (Homo sapiens, UniProt O75365).
T1 construct: cDNAs of human PRL-1, PRL-2 and PRL-3 coding region were derived by RT-PCR from H9 cells; made in house; host or cells: DH5a bacteria (E. coli)
Put plainly: In vitro PTPase assay, recombinant PRL-3. In kind it is biochemical. An excerpt: Sodium stibogluconate, suramin, sodium orth ovanadate and GST fusion protein of SHP-1 have been described previously (Pathak et al., J. Imumol. 167, 3391 (2001)). Meglumine antimonate was obtained from Aventis. cDNAs of human PRL-1, PRL-2 and PRL-3 coding region were derived by RT-PCR from H9 cells (Safai, et al., Lancet 1, 1438 (1984)) and inserted in frame into the pGEX vector. cDNA of PRL-1R86 was generated by recombinant DNA technique using PRL-1 cDNA as template following established procedures (Jiao, et al., Mol. Cell. Biol. 16, 6985 (1996)). GST fusion proteins of the PRL phosphatases were prepared from DH5a bacteria transformed with the pGEX fusion protein constructs as described previously (Yi, et al., Mol. Cell. Biol. 12, 836 (1992)). cDNAs encoding the PRLs tagged at the N-termini with the Flag epitope (Castrucci, et al., J. Virol. 66, 4647 (1992)) were generated via recombinant DNA technique, sequenced to confirm their identities and cloned into the pBabepuro vector (Yang, et al., Blood 91, 3746 (1998)). Anti-Flag monoclonal antibody (M2, Sigma) was purchased from a commercial source. A synthetic phosphotyrosine peptide (Arg-Arg-Leu-Ile-Glu-Asp-Ala-Gle-Tyr-Ala-Ala-Arg-Gly (SEQ ID NO: 3), wherein the tyrosine is phosphorylated; UBI) and DiFMUP (6, 8-difluoro-4-methylumbelliferyl phosphate, Molecular Probes) were purchased as substrates for PTPase assays.
In vitro PTPase assays were used to determine the effects of compounds on recombinant PTPases, following established procedures using a synthetic phosphotyrosine peptide or DiFMUP as the substrate (Pathak et al., J. Imumol. 167, 3391 (2001)). Briefly, individual PTPases (0.1 μg/reaction) in 50 μL of PTPase buffer (50 mM Tris, pH 7.4) were incubated at 22° C. for 10 minutes or as indicated in the absence or presence of inhibitory compounds. Substrates (0.2 mM phosphotyrosine peptide) were then added and allowed to react at 22° C. for 18 hrs. PTPase activity of individual reactions was measured by adding 100 μL of malachite green solution (UBI) and then quantifying the amounts of free phosphate cleaved by the PTPase from the peptide substrate by spectrometry (OD660 nm). PTPase assays using DiFMUP as a substrate were conducted following a previously described procedure (Matter, et al., Biochem. Biophys. Res. Comm. 283, 1061 (2001)). Relative PTPase activities were calculated based on the formula: (PTPase activity in the presence of an inhibitory compound/PTPase activity in the absence of the compound)×100%. To assess the reversibility of PTPase inhibition, GST fusion proteins of the PTPases bound on glutathione beads (Pharmacia) were pre-incubated with cold Tris buffer (50 mM Tris, pH 7.0) or Tris buffer containing the inhibitor at 4° C. for 30 minutes. The beads were then washed three times in cold Tris buffer or not washed prior to subjecting to in vitro PTPase assays.

In a further experiment the target is T2, MKP1 (Homo sapiens, UniProt P28562).
T2 construct: a pGEX construct containing the coding region of MKP1 cDNA derived by RT-PCR; made in house; host or cells: DH5a bacteria (E. coli)
T2 sequence (P28562 1-367): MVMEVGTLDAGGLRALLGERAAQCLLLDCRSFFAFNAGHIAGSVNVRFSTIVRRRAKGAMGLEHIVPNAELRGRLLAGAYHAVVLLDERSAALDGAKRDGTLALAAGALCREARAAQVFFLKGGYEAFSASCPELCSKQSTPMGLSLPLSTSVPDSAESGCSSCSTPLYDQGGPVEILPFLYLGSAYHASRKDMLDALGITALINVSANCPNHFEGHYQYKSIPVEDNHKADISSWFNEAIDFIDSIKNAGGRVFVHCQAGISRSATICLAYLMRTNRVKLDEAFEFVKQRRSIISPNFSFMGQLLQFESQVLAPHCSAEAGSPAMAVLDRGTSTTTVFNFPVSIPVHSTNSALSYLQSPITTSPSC
Put plainly: In vitro PTPase assay, GST/MKP1 fusion protein. The class given is biochemical.

T1 sequence (O75365 whole entry): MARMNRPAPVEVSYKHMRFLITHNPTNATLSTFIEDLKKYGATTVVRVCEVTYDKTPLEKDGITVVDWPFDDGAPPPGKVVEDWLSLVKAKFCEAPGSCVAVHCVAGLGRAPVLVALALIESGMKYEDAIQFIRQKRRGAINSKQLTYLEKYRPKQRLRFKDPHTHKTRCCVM

On to `O.O.O.O.O.O.O.O.O.O=C([O-])[C@@H]1[O][Sb]2([O-])([O][Sb]34([OH])[O][C@H]([C@H](O)CO)[C@H]([O]3)[C@H](C(=O)[O-])[O]4)[O][C@H]([C@H](O)CO)[C@@H]1[O]2.[Na+].[Na+].[Na+]` [sodium stibogluconate], for which the “killing of DU145 cells, single agent” value with DU145 cells (50 μg/ml and 100 μg/ml, day 6 culture) is on record as “killed all cells”. Moreover, in the experiment on DU145 cells (100 μg/ml, day 6), the “cell killing, DU145” value was “near-complete cell killing”. Besides, the “IFN-alpha-induced growth inhibition of DU145 in presence of drug” value in the experiment with DU145 cells (day 6) is listed as “augmented”. In addition, the “sensitivity of C42 cells” value in the experiment with C42 cells is “highly resistant”. The “cell killing, LoVo” value in the experiment with LoVo cells was “near-complete cell killing”. Moreover, the “inactivation of PRL-3 with prolonged pre-incubation” value on PRL-3 (10 μg/ml, pre-incubation 30 or 60 minutes) was “nearly complete inactivation”. Further, the “inhibition of PRL-3 with DiFMUP substrate” value at PRL-3 (DiFMUP, comparable conditions) is “also detected”. Further, the “reversibility of PRL-3 inhibition by washing” value at PRL-3 (PRL-3 bound to glutathione beads) is “not relieved by a washing process”. For the same molecule, on MKP1, the “inhibition of MKP1” value is listed as “no obvious effects” and the “inhibitory activity against MKP1” value is reported as “no obvious inhibitory activity”.
